Numbering of substitutions follows the chain as printed.
Legend:
[1] = biological target: TvVip (Trichoderma virens, UniProt G9MQB8); experiment: X-ray crystal structure; type: binding; details: 3.2 Å; complex with SAM; active site
[2] = biological target: NvVip (Nematostella vectensis, UniProt A7RNF3); experiment: X-ray crystal structure; type: binding; details: 1.42 Å, [4Fe-4S], anaerobic, active site
[3] = biological target: T1, RnVip (Rattus norvegicus, UniProt O70600, H77A); experiment: ddhCTP formation; type: biochemical; details: SAM, dithionite
T1 sequence (O70600 1-360 H77A): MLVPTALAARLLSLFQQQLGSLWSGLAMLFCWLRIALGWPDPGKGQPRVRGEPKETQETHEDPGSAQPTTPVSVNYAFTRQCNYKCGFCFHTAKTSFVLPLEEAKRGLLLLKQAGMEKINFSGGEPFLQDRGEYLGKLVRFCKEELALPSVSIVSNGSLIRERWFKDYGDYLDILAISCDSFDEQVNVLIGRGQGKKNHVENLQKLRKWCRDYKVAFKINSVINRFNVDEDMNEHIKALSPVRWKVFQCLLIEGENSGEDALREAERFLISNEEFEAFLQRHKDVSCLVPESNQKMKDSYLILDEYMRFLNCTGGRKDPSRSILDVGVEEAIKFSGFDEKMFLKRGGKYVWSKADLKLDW

[4] = biological target: MlVip (Methanofollis liminatans, UniProt J0S9F5); experiment: ddhNTP product by LC-MS; type: biochemical; details: SAM, dithionite; labelled compound (deuCTP)
[5] = biological target: T2, RnVip (Rattus norvegicus, UniProt O70600, K317A); experiment: ddhCTP formation; type: biochemical; details: SAM, dithionite
T2 sequence (O70600 1-360 K317A): T1 sequence (O70600 1-360 H77A) with A77H, K317A

With `O=c1ccn([C@@H]2O[C@H](COP(=O)(O)OP(=O)(O)OP(=O)(O)O)[C@@H](O)[C@H]2O)c(=O)[nH]1` [UTP] as the molecule, how does the X-ray crystal structure [1] read?
The X-ray crystal structure was “Crystals of TvVip bound to SAM and UTP exhibited diffraction”.

Which results are given for `Nc1ccn([C@@H]2O[C@H](COP(=O)(O)OP(=O)(O)OP(=O)(O)O)[C@@H](O)[C@H]2O)c(=O)n1` [CTP]?
X-ray crystal structure ([2]; complex with SAM): omit maps show strong density for CTP in the catalytic site; ddhCTP formation [3]: We generated the RnVip variant H77A and the MmVip variant H79A; ddhNTP product by LC-MS; deu5'-dA formation [4]: only deuCTP was converted to the respective ddhNTP product by MlVip; ddhCTP formation [5]: we generated a lysine to alanine variant in RnVip (K317A

For `C[S+](CC[C@H](N)C(=O)O)C[C@H]1O[C@@H](n2cnc3c(N)ncnc32)[C@H](O)[C@@H]1O` (stereo partly drawn) [SAM], which X-ray crystal structure ([2]; complex with CTP) is on record?
Its X-ray crystal structure is “The asymmetric unit of NvVip contains one protein chain, a 4Fe-4S cluster, CTP, and SAM”.

— article PMC8672371 (Biochemistry, 2021)
